# Experimental data reported in ChEMBL document CHEMBL4152309, “N-phenylsulfonyl-3,5-bis(arylidene)-4-piperidone derivatives as activation NF-κB inhibitors in hepatic carcinoma cell lines” (Eur J Med Chem, 2018).
# The source made the active and inactive calls. The calls are words filed in the database; no cut-off is given here.
# What was measured:
# [1] = test system: HepG2; assay: Cytotoxicity against human HepG2 cells assessed as reduction in cell viability after 24 hrs by MTT assay; type: functional, cell-based
# [2] = test system: QGY-7703; assay: Cytotoxicity against human QGY7703 cells assessed as reduction in cell viability after 24 hrs by MTT assay; type: functional, cell-based
# [3] = test system: SMMC-7721; assay: Cytotoxicity against human SMMC7721 cells assessed as reduction in cell viability after 24 hrs by MTT assay; type: functional, cell-based
# [4] = Cytotoxicity against mouse RAW264.7 cells assessed as cell viability at 10 uM after 24 hrs by MTT assay relative to control; type: cell-based; conditions: read-out: Activity
# [5] = Cytotoxicity against human HHL5 cells assessed as reduction in cell viability after 24 hrs by MTT assay; type: cell-based; conditions: HHL-5, 24 h
# [6] = test system: L02; assay: Cytotoxicity against human LO2 cells assessed as reduction in cell viability after 24 hrs by MTT assay; type: cell-based; conditions: L02, 24 h
# [7] = test system: RAW264.7; assay: Anti-inflammatory activity in mouse RAW264.7 cells assessed as inhibition of LPS-induced TNFalpha secretion at 10 uM pretreated for 2 hrs followed by LPS stimulation and measured after 22 hrs by ELISA; type: functional, cell-based
# [8] = test system: RAW264.7; assay: Anti-inflammatory activity in mouse RAW264.7 cells assessed as inhibition of LPS-induced IL-6 secretion at 10 uM pretreated for 2 hrs followed by LPS stimulation and measured after 22 hrs by ELISA; type: functional, cell-based
# [9] = test system: RAW264.7; assay: Inhibition of LPS-stimulated NFkappaB activation in mouse RAW264.7 cells assessed as reduction in IkappaB phosphorylation at 1 to 10 uM pretreated for 2 hrs followed by LPS-stimulation and measured after 15 mins by Western blot method; type: cell-based
# [10] = test system: HepG2; assay: Induction of apoptosis in human HepG2 cells assessed as increase in early apoptotic cells after 24 hrs by Annexin-V-FITC/propidium iodide staining based flow cytometry; type: functional, cell-based
# [11] = test system: HepG2; assay: Induction of apoptosis in human HepG2 cells assessed as increase in late apoptotic cells after 24 hrs by Annexin-V-FITC/propidium iodide staining based flow cytometry; type: functional, cell-based
# [12] = test system: QGY-7703; assay: Induction of apoptosis in human QGY7703 cells assessed as increase in early apoptotic cells after 24 hrs by Annexin-V-FITC/propidium iodide staining based flow cytometry; type: functional, cell-based
# [13] = test system: QGY-7703; assay: Induction of apoptosis in human QGY7703 cells assessed as increase in late apoptotic cells after 24 hrs by Annexin-V-FITC/propidium iodide staining based flow cytometry; type: functional, cell-based
# [14] = test system: SMMC-7721; assay: Induction of apoptosis in human SMMC7721 cells assessed as increase in early apoptotic cells after 24 hrs by Annexin-V-FITC/propidium iodide staining based flow cytometry; type: functional, cell-based
# [15] = test system: SMMC-7721; assay: Induction of apoptosis in human SMMC7721 cells assessed as increase in late apoptotic cells after 24 hrs by Annexin-V-FITC/propidium iodide staining based flow cytometry; type: functional, cell-based
# [16] = test system: HepG2; assay: Induction of apoptosis in human HepG2 cells assessed as decrease in Bcl2 expression after 24 hrs by Western blot analysis; type: functional, cell-based
# [17] = test system: HepG2; assay: Induction of apoptosis in human HepG2 cells assessed as increase in Bax expression after 24 hrs by Western blot analysis; type: functional, cell-based
# [18] = test system: HepG2; assay: Induction of apoptosis in human HepG2 cells assessed as increase in cleaved caspase 3 expression after 24 hrs by Western blot analysis; type: functional, cell-based
# [19] = test system: RAW264.7; assay: Inhibition of LPS-stimulated NFkappaB activation in mouse RAW264.7 cells assessed as reduction in p65 phosphorylation at 1 to 10 uM pretreated for 2 hrs followed by LPS-stimulation and measured after 15 mins by Western blot method; type: cell-based
# [20] = test system: HepG2; assay: Inhibition of TNFalpha-stimulated NFkappaB activation in human HepG2 cells assessed as reduction in IkappaB phosphorylation pretreated for 2 hrs followed by LPS-stimulation and measured after 15 mins by Western blot method; type: cell-based
# [21] = test system: HepG2; assay: Inhibition of TNFalpha-stimulated NFkappaB activation in human HepG2 cells assessed as reduction in p65 phosphorylation pretreated for 2 hrs followed by LPS-stimulation and measured after 15 mins by Western blot method; type: cell-based
# [22] = target: Transcription factor p65 (Mus musculus) (UniProt Q04207); assay: Inhibition of LPS-stimulated NFkappaB p65 nuclear translocation in mouse RAW264.7 cells at 5 uM pretreated for 2 hrs followed by LPS-stimulation and measured after 15 mins by DAPI staining based microscopic analysis; type: cell-based
# [23] = target: Transcription factor p65 (Homo sapiens) (UniProt Q04206); assay: Inhibition of TNFalpha-stimulated NFkappaB p65 nuclear translocation in human HepG2 cells at 5 uM pretreated for 2 hrs followed by LPS-stimulation and measured after 15 mins by DAPI staining based microscopic analysis; type: cell-based
# Transcription factor p65 (Homo sapiens), sequence (Q04206 whole entry): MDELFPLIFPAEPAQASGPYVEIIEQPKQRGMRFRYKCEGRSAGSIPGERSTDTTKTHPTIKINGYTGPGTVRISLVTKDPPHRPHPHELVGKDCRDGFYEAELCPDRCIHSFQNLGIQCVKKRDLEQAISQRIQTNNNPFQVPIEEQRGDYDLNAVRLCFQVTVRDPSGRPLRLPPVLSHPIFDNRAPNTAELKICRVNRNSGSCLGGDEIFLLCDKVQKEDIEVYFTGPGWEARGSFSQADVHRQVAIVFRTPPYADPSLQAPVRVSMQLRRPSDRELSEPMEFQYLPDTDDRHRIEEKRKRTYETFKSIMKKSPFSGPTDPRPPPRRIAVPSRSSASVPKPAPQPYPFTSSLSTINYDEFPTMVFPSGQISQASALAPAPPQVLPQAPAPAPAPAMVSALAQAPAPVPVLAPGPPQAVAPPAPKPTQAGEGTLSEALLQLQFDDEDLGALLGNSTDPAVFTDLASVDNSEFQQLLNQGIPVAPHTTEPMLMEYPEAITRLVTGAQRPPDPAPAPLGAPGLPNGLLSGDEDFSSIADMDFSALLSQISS
# Transcription factor p65 (Mus musculus), sequence (Q04207 whole entry): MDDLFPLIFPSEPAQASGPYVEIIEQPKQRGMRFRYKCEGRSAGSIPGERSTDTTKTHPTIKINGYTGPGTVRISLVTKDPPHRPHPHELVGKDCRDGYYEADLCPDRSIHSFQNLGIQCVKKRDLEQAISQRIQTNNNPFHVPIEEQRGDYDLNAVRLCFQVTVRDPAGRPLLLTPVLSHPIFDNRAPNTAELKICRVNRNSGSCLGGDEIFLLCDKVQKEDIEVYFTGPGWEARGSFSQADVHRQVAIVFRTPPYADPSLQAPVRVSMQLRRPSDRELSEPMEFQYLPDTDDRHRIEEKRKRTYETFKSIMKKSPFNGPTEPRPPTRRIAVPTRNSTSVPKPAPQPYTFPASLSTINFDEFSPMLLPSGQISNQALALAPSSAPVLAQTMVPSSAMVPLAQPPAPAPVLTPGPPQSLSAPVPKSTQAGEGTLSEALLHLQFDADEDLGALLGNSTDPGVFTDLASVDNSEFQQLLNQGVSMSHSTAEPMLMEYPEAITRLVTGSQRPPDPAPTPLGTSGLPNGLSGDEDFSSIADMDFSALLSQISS
compound,measurement,setting,value
COc1cc(/C=C2\CN(S(=O)(=O)c3ccc(NC(C)=O)cc3)C/C(=C\c3ccc(C#N)cc3)C2=O)cc(OC)c1OC,Activity,[1],Dose-dependent effect
same,IC50,"[1]; HepG2, 24 h",2890 nM
same,Activity,[2],Dose-dependent effect
same,IC50,"[2]; QGY-7703, 24 h",1890 nM
same,Activity,[3],Dose-dependent effect
same,IC50,"[3]; SMMC-7721, 24 h",1730 nM
same,"viability at 24 h, 10 µM",[4],> 80%
same,IC50,[5],13600 nM
same,IC50,[6],13600 nM
same,inhibition,[7],Active
same,inhibition,[8],Active
same,inhibition,[9],Active
same,Activity,[10],Dose-dependent effect
same,Activity,[11],Dose-dependent effect
same,Activity,[12],Dose-dependent effect
same,Activity,[13],Dose-dependent effect
same,Activity,[14],Dose-dependent effect
same,Activity,[15],Dose-dependent effect
same,Activity,[16],Dose-dependent effect
same,Activity,[17],Dose-dependent effect
same,Activity,[18],Dose-dependent effect
same,inhibition,[19],Active
same,inhibition,[20],Dose-dependent effect
same,inhibition,[21],Dose-dependent effect
same,inhibition,[22],Active
same,inhibition,[23],Active
